Assays:
Assay type in all cases: cell-based, human
[1] = system: HL-60 cells; experiment: HL-60 responses to selected compounds at a range of concentrations; settings: for activity at 30 µM / activity at 100 µM / activity at 330 µM / activity at 1000 µM / activity at 3300 µM / activity at 10000 µM / activity at 15000 µM / activity at 20000 µM: Homo sapiens, HL-60, read-out: HL-60 Cell Responses to Selected Compounds from PM1 and PM2
Protocol: In this Example, methods for testing unattached cells for their ability to use various concentrations of selected carbon sources are described. The carbon sources used in this Example were identified by the methods disclosed in Example 27. Similarly, HL-60 cells were cultured as described in Example 27.
After washing, HL-60 cells were resuspended in DME-R. An aliquot of the cell suspension was counted by trypan blue exclusion and the cell density was adjusted to 6.67×10^5/mL. Fifty μL of DME-R were added to each well of the appropriate number of half area, 96-well plates, followed by 23 μL of the appropriate dilution of each test energy source. Stocks of 133 mM of each test chemical were prepared in tissue culture grade water, sterile filtered, and dilutions were prepared in a master plate so that, upon dilution in a total volume of 150 μL, the final concentrations would be 0.033 to 20 mM. Negative control wells received 23 μL of tissue culture grade water. The cells were plated at a volume of 75 μL/well, giving a final cell density of 5×10^4/well. For each plate containing energy sources and cells, a second, control plate containing only energy sources was prepared. Plates were incubated at 5% CO2, 90-100% humidity, and 37° C. for 24 hours prior to addition of the MTS/MPMS colorometric reagent (7.5 μL/well). The color formed in each well after an additional 24 hour incubation period, was measured on a plate reader at 490 nm with a reference wavelength of 650 nm. OD values from the control plate were subtracted from the OD values obtained with cells prior to normalizing the data to % negative control (cells without added energy source).

[2] = system: HL-60 cells; experiment: Effect of 10 mM citric acid on HL-60 energy utilization; settings: negative control without energy sources and without citric acid
[3] = system: DMSO-differentiated HL-60 cells; experiment: Energy use by DMSO-differentiated HL-60 cells; settings: for activity at 30 µM / activity at 100 µM / activity at 330 µM / activity at 1000 µM / activity at 3300 µM / activity at 10000 µM / activity at 15000 µM / activity at 20000 µM: Homo sapiens, HL-60, 24 h, read-out: Energy Use by DMSO-Differentiated HL-60 Cells
Protocol: In this Example, methods for testing in vitro-differentiated cells for their ability to use multiple energy sources are described. Prior to differentiation, HL-60 cells were cultured as described in Example 27. DMSO-induced differentiation (Odani et al., Res. Commun. Mol. Pathol. Pharmacol. 108:381-391 [2000]; and Yamaguchi et al., Biol. Pharm. Bull. 20:943-947 [1997]) was accomplished by incubation of the cells in the presence of 1.25% DMSO for 3 days.
After washing, HL-60 cells were resuspended in DME-R. An aliquot of the cell suspension was counted by trypan blue exclusion and the cell density was adjusted to 6.67×10^5/mL. Fifty μL of DME-R were added to each well of the appropriate number of half area, 96-well plates, followed by 25 μL of the appropriate dilution of each test energy source. Stocks of 133 mM of each test chemical were prepared in tissue culture grade water, sterile filtered, and dilutions were prepared in a master plate so that, upon dilution into a half-area 96-well microtiter plate to a total well volume of 150 μL, the final concentrations would be 0.033 to 20 mM. Negative control wells received 25 μL of tissue culture grade water. The cells were plated at a volume of 75 μL/well, giving a final cell density of 5×10^4/well. For each plate containing energy sources and cells, a second, control plate containing only energy sources was prepared with the same total volume of liquid (148 μL/well). Plates were incubated at 5% CO2, 90-100% humidity, and 37° C. for 24 hours prior to addition of the MTS/MPMS calorimetric reagent (7.5 μL/well). The color formed in each well 24 hours after addition of the colorimetric reagent, was measured with a plate reader at 490 nm with a reference wavelength of 650 nm. OD values from the control plate were subtracted from the OD values obtained with cells prior to normalizing the data to % negative control (cells without added energy source).

[4] = energy source 0.03 mM with 10 mM citric acid
[5] = energy source 0.10 mM with 10 mM citric acid
[6] = energy source 0.33 mM with 10 mM citric acid
[7] = energy source 1.00 mM with 10 mM citric acid
[8] = energy source 3.3 mM with 10 mM citric acid
[9] = energy source 10 mM with 10 mM citric acid
[10] = energy source 15 mM with 10 mM citric acid
[11] = energy source 20 mM with 10 mM citric acid

Structure (SMILES) | activity at 30 µM ([1]; Conc. 0.03 mM) | activity at 100 µM ([1]; Conc. 0.10 mM) | activity at 330 µM ([1]; Conc. 0.33 mM) | activity at 1000 µM ([1]; Conc. 1.00 mM) | activity at 3300 µM ([1]; Conc. 3.3 mM) | activity at 10000 µM ([1]; Conc. 10 mM) | activity at 15000 µM ([1]; Conc. 15 mM) | activity at 20000 µM ([1]; Conc. 20 mM) | Effect of 10 mM Citric Acid on HL-60 Energy Utilization [2, 4] | Effect of 10 mM Citric Acid on HL-60 Energy Utilization [2, 5] | Effect of 10 mM Citric Acid on HL-60 Energy Utilization [2, 6] | Effect of 10 mM Citric Acid on HL-60 Energy Utilization [2, 7] | Effect of 10 mM Citric Acid on HL-60 Energy Utilization [2, 8] | Effect of 10 mM Citric Acid on HL-60 Energy Utilization [2, 9] | Effect of 10 mM Citric Acid on HL-60 Energy Utilization [2, 10] | Effect of 10 mM Citric Acid on HL-60 Energy Utilization [2, 11] | activity at 30 µM ([3]; Conc. 0.03 mM) | activity at 100 µM ([3]; Conc. 0.10 mM) | activity at 330 µM ([3]; Conc. 0.33 mM) | activity at 1000 µM ([3]; Conc. 1.00 mM) | further results
CC(C)[C@H](N)C(=O)O [L-valine] | 117% | 137% | 134% | 135% | 133% | 125% | 122% | 112% | 9.3 % of negative control | 13.4 % of negative control | 12.4 % of negative control | 12.7 % of negative control | 20.8 % of negative control | 32.2 % of negative control | 42.3 % of negative control | 64.5 % of negative control | 81.1% | 89.4% | 85.2% | 86.7% | activity at 3300 µM ([3]; Conc. 3.3 mM): 81.2%; activity at 10000 µM ([3]; Conc. 10 mM): 89.3%; activity at 15000 µM ([3]; Conc. 15 mM): 81.4%; activity at 20000 µM ([3]; Conc. 20 mM): 88.6%
O=C(O)[C@@H]1C[C@@H](O)CN1 [hydroxy L-proline] | – | – | – | – | – | – | – | – | 7.6 % of negative control | 17.7 % of negative control | 25.0 % of negative control | 37.5 % of negative control | 49.0 % of negative control | 85.0 % of negative control | 87.4 % of negative control | 68.8 % of negative control | – | – | – | – | response greater than the negative control ([1]; 0.033 to 20 mM, 24 h culture + 24 h color development): < 30%; HL-60 Cell Responses to Selected Compounds from PM1 and PM2 ([1]; Conc. 0.03 mM): 125.0 % of negative control; HL-60 Cell Responses to Selected Compounds from PM1 and PM2 ([1]; Conc. 0.10 mM): 122.8 % of negative control; HL-60 Cell Responses to Selected Compounds from PM1 and PM2 ([1]; Conc. 0.33 mM): 121.5 % of negative control; HL-60 Cell Responses to Selected Compounds from PM1 and PM2 ([1]; Conc. 1.00 mM): 128.4 % of negative control; HL-60 Cell Responses to Selected Compounds from PM1 and PM2 ([1]; Conc. 3.3 mM): 129.6 % of negative control; HL-60 Cell Responses to Selected Compounds from PM1 and PM2 ([1]; Conc. 10 mM): 121.5 % of negative control; HL-60 Cell Responses to Selected Compounds from PM1 and PM2 ([1]; Conc. 15 mM): 111.8 % of negative control; HL-60 Cell Responses to Selected Compounds from PM1 and PM2 ([1]; Conc. 20 mM): 99.2 % of negative control; Energy Use by DMSO-Differentiated HL-60 Cells ([3]; Conc. 0.03 mM): 102.8 % of negative control; Energy Use by DMSO-Differentiated HL-60 Cells ([3]; Conc. 0.10 mM): 110.5 % of negative control; Energy Use by DMSO-Differentiated HL-60 Cells ([3]; Conc. 0.33 mM): 120.5 % of negative control; Energy Use by DMSO-Differentiated HL-60 Cells ([3]; Conc. 1.00 mM): 121.9 % of negative control; Energy Use by DMSO-Differentiated HL-60 Cells ([3]; Conc. 3.3 mM): 129.0 % of negative control; Energy Use by DMSO-Differentiated HL-60 Cells ([3]; Conc. 10 mM): 126.9 % of negative control; Energy Use by DMSO-Differentiated HL-60 Cells ([3]; Conc. 15 mM): 109.0 % of negative control; Energy Use by DMSO-Differentiated HL-60 Cells ([3]; Conc. 20 mM): 92.0 % of negative control
COC(=O)CCC(=O)O [mono methyl succinate] | 118% | 130% | 133% | 142% | 167% | 173% | 139% | 93.3% | 4.9 % of negative control | 13.0 % of negative control | 16.9 % of negative control | 51.7 % of negative control | 163.6 % of negative control | 210.0 % of negative control | 192.3 % of negative control | 173.9 % of negative control | 104% | 93.4% | 124% | 142% | activity at 3300 µM ([3]; Conc. 3.3 mM): 184%; activity at 10000 µM ([3]; Conc. 10 mM): 194%; activity at 15000 µM ([3]; Conc. 15 mM): 156%; activity at 20000 µM ([3]; Conc. 20 mM): 118%

Reference: US9274101B2 (BIOLOG, Inc., priority 2001, dated 2016)
